The results in this text go back to PMC4180444 (Toxicology letters, 2014).

Data set [1] concerns the target T1, human PPARγ (Homo sapiens, UniProt P37231).
T1 sequence (P37231 1-505): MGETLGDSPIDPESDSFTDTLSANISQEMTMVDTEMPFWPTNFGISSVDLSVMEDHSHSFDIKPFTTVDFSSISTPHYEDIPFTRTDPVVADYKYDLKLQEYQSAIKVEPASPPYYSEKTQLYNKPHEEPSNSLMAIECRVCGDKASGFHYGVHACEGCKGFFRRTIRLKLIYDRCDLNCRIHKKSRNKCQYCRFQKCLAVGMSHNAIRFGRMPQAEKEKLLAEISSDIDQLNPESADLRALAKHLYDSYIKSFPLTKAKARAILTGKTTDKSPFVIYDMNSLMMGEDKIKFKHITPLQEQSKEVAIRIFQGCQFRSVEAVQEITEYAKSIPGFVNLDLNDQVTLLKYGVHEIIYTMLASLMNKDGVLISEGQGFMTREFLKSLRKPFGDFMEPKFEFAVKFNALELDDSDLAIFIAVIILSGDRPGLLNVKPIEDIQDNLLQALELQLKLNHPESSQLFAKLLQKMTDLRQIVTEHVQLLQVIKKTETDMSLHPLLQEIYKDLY
The class given is cell-based. The conditions noted are these: for PPARγ agonist activity (result in words): 24 hr exposure, vs vehicle control; for fold increase in PPARγ activity relative to vehicle control: 10-fold concentration intervals (Fig. 4).

The subject of data set [2] is CHO PPARγ reporter cells. The data set is classed as cell-based, Chinese Hamster. The settings on record: 0.1 μM to 100 μM; 24 hr.
Data set [3] relates to D283 Med cells. Nature of the data set: MTS viability assay. The data set is classed as cell-based, human. The conditions noted are these: 1 μM to 30 μM, 48 hour exposure (Fig. 6 legend). In general terms: Tetrazolium dyes change colour on reduction, which living cells bring about.
Data set [4] has as its system caspase 3 activity in D283 Med cells. Nature of the data set: caspase 3 activity assay in cell lysates. The class given is cell-based, human. The settings on record: 6 hour exposure.

Several values for one entry are separate records, joined by “and”; a condition that tells them apart may be missing. Identical values can stand only once. Entries after “also recorded” stand apart in the source; their conditions may differ. Like-named read-outs stand apart in the source and are kept apart here.

In the case of `[Cl][Sn]([c]1ccccc1)([c]1ccccc1)[c]1ccccc1` [TPT Cl, triphenyltin chloride, reference compound], in data set [1], the “Concentration of maximal PPARγ activity observed” value came out at 0.1 µM. The “concentration above which PPARγ activity decreased” value in data set [1] (non-monotonic concentration response) is > 0.1 µM. Further, the AC50 in data set [1] (read-out: AC50, concentration eliciting half-maximal response, 4-parameter variable slope model) is 3 nM and 3.3 nM.
Take `CCCCC(CC)COC(=O)c1cc(Br)c(Br)c(Br)c1Br` (stereo not shown) [TBB, 2-ethylhexyl-2,3,4,5-tetrabromobenzoate]: the “PPARγ agonist activity (result in words)” value in data set [1] is listed as “No statistical differences; also recorded: No activity”.
For `O=P(Oc1ccccc1)(Oc1ccccc1)Oc1ccccc1` [TPP, triphenyl phosphate], in data set [1], the “Concentration of maximal PPARγ activity observed” value turned out to be 30 µM and the “PPARγ agonist activity (result in words)” value was “Significant agonist activity”. In addition, in data set [1] (10 μM (10^-5 M)), the “fold increase in PPARγ activity relative to vehicle control” value is 6.23 ± 0.63 fold and 6.2 fold. For the same compound, in data set [1] (30 μM, focused analysis with half-log (3-fold) increments (Fig. 5)), the “fold increase in PPARγ activity” value was found to be 20 ± 2.2 fold. For the same compound, the “fold increase in PPARγ activity relative to vehicle control” value in data set [1] (100 μM) was determined as 2.84 ± 0.34 fold. In data set [1] (TPP at 30 μM), the “relative maximal PPARγ activity, percent of TPT Cl” value is recorded as 57% ± 6%. Moreover, the “effect on cell viability” value in data set [2] is “dose dependent decreases in cell viability”. The “effect on viability” value in data set [3] is “decreased viability”. In data set [4], the “concentration above which caspase activity significantly increased” value is recorded as “above 1 μM” and the “effect on caspase 3 activity” value is “significant dose dependent increases in caspase 3 activities”.
As for `C=[CH][Sn]([CH2]CCC)([CH2]CCC)[CH2]CCC` [TBVT, Tributyl(vinyl)tin, reference compound], the “Concentration of maximal PPARγ activity observed” value in data set [1] was found to be 10 µM. Moreover, in data set [1] (10 μM (10^-5 M)), the “fold increase in PPARγ activity relative to vehicle control” value was 3 fold and 3.3 ± 0.3 fold.
